Molecular target: T1, IKKβ (Homo sapiens, UniProt O14920)
T1 construct: gene IKBKB; human recombinant IKKβ
T1 sequence (O14920 1-756): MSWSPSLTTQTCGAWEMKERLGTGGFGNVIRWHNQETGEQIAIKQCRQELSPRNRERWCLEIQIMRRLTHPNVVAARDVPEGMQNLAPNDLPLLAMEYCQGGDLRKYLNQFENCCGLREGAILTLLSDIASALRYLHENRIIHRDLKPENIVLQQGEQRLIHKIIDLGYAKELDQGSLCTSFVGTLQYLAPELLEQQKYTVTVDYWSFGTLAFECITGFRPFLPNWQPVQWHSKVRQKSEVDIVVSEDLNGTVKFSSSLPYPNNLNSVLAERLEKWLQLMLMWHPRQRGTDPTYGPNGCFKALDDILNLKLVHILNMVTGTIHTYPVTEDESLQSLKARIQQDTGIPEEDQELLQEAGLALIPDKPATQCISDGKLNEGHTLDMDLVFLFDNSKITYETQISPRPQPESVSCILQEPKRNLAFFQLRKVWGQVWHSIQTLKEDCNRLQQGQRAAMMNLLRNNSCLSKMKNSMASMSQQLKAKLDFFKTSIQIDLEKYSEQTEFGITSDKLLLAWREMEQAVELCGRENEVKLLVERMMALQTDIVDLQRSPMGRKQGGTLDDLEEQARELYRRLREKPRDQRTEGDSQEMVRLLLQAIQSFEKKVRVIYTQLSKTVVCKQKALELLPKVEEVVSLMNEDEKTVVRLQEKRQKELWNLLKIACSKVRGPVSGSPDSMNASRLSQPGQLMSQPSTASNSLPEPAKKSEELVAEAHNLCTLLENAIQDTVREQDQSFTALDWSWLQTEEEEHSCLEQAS
Assay: ELISA-based K-LISA IKKβ kinase assay with GST-IκBα substrate
Assay type: biochemical

Question: For `O=C(O)c1ccccc1C(=O)NCCC(c1ccccc1)c1ccco1` (stereo not shown) [compound 1, benzoic acid derivative (1)], which IC50 is on record?
Answer: ~50 µM

From article PMC3583241, “Hit identification of IKKβ natural product inhibitor” (BMC Pharmacology & Toxicology, 2013)
